Measured values: article PMC4302236, “Functional profile of a novel modulator of serotonin, dopamine, and glutamate neurotransmission” (Psychopharmacology, 2014)
Marks after values point to notes of the source that are not given here.

What was measured:
[1] = system: D-AMPH-induced hyperactivity; assay: Inhibition of D-amphetamine-induced hyperactivity; type: in vivo; conditions: rats, p.o.; D-AMPH 1 mg/kg i.p.; distance traveled over 2 h
Description: Male Sprague–Dawley rats (200–250 g, N=4/treatment group) were habituated to Lucite locomotor activity chambers comprising an AccuScan activity monitoring system (AccuScan Instruments, Inc., Columbus, OH) were maintained in a quiet observation room kept under low light conditions. […] The rats were briefly removed from the activity chambers 60 min later to receive an injection of D-amphetamine hydrochloride (D-AMPH; 1 mg/kg in 1 ml/kg, i.p.). The animals were returned to the activity chambers, and locomotor activity was then recorded for 2 h using system software. Activity was quantitated as distance traveled (cm) over 2 h for each group. Inhibitory activity was calculated as the percent of total activity observed at each dose level of each drug versus animals receiving D-AMPH alone. An ID50 for inhibition of D-AMPH-induced hyperactivity was calculated for each compound.

[2] = system: serine 40 (S40)-phosphorylated tyrosine hydroxylase; assay: Striatal tyrosine hydroxylase S40 phosphorylation state (CNSProfile immunoblotting); type: in vivo; conditions: mice, acute; ITI-007 3 mg/kg p.o., clozapine 5 i.p., aripiprazole 10 p.o., olanzapine 1 i.p., risperidone 3 p.o., haloperidol 1 i.p.; over 60 min; vs vehicle
Description: The effect of the selected compounds on the phosphorylation state of tyrosine hydroxylase (TH) was measured and quantitated as an indicator of the potential of each compound to perturb presynaptic dopamine synthesis in striatum. […] This technique preserves in vivo levels of brain protein phosphorylation ([Zhu et al. 2010]). […] Small aliquots of the homogenate were retained for protein determination by the bicinchoninic acid (BCA) protein assay method (Pierce Chemical Co., Rockford, IL). […] Immunoblotting was carried out using a phos-phorylation state-specific polyclonal antibody raised against […] (S40)-phosphorylated tyrosine hydroxylase (Chemicon, Temecula, CA) and a pan-TH monoclonal antibody for measuring the total protein levels (BD Biosciences, San Jose, CA). […] Antibody binding was detected and quantitated using a LiCor Odyssey infrared fluorescent detection system. Phosphorylation at each site detected by phospho-specific antibodies was quantified, normalized to total levels of the protein (non-phosphorylated), and expressed as percent±SEM of the level of phosphorylation in vehicle-treated control mice (N=6).

[3] = system: striatal dopamine metabolism; assay: Striatal dopamine metabolism (HPLC-EC of DA, DOPAC, HVA); type: in vivo, mice; conditions: for DOPAC/DA, chronic (21 day) dosing, mean / HVA/DA, chronic (21 day) dosing, mean: striatum 2 h after last dose; for DOPAC/DA, acute (2 h) dosing, mean / HVA/DA, acute (2 h) dosing, mean: striatum 2 h after dose
Description: Measurements of tissue dopamine levels were performed at CDC-NIOSH. […] Striatum was rapidly dissected from each mouse brain, weighed, and placed into Eppendorf tubes that were frozen in liquid nitrogen and stored at -80 °C. […] Tissues were homogenized in 100 μl of ice-cold 0.2 M perchloric acid containing 1 μM dihydroxybenzylamine (DHBA) as an internal standard and centrifuged at 10,000×g for 10 min at 4 °C. The supernatant was filtered through a 0.2 μm nitrocellulose membrane, and an aliquot (10 μl) was injected from a temperature-controlled (4 °C) automatic sample injector (Waters 717plus Autosampler) connected to a Waters 515 HPLC pump. Catecholamines were separated on a C18 reverse-phase column ([…]; Waters […] 25 cm×4.6 mm; 5 μm), electrochemically detected (Waters 464 Pulsed Electrochemical Detector; range 10 nA, potential +0.7 V), and analyzed using Millennium software. […] A flow rate of 1 ml/min was used. […] The recovery of each analyte was adjusted with respect to the internal standard and quantified from a standard curve. The levels of dopamine and its metabolites, DOPAC and HVA, were calculated from the AUC values for each (based on microgram per gram (μg/g) tissue wet weight) and expressed as a percent of the saline control.

extracellular dopamine = assay: In vivo microdialysis of dopamine and DOPAC in striatum and prefrontal cortex; conditions: rats
Description: On the day of the experiment (24–48 h after surgery), the microdialysis probes of each animal were connected via the use of flexible PEEK tubing to a microperfusion pump (Harvard Apparatus, PHD 2000 Holliston, MA). Artificial CSF, composed of 147 mM NaCl, 3 mM KCl, 1.2 mM CaCl2, and 1.2 mM MgCl2 was used to perfuse the probes (1.5 μl/min) beginning at 75 min prior to drug treatment. Baseline dialysate collection was begun for all rats 60 min prior to drug administration (t=−60 min) such that a total of […] were collected prior to drug treatment (t=0). […] A control group of rats (N=9) received only the 0.5 % methylcellulose vehicle solution, delivered orally (p.o.). All drug solutions were delivered in a volume of 1 ml/kg of body weight. Every 20 min for the following 3 h, dialysate was collected from both brain regions of each rat. Dialysates were collected into mini-vials containing 7.5 μl of 0.02 M formic acid using an automated fraction collector Univentor 820, Malta. Tubes containing dialysate samples were then frozen at −80 °C until analyzed by HPLC for levels of dopamine and the dopamine metabolite, DOPAC. […] Coronal sections were prepared of each rat brain to verify the position of the dialysis collection probes. Dopamine and DOPAC concentrations were determined in each sample using HPLC separation and electrochemical detection. An aliquot (20 μl) of each dialysate sample was injected onto the HPLC column by means of a refrigerated microsampler system, consisting of a syringe pump (Gilson, model 402), a multi-column injector (Gilson, model 233 XL), and a temperature regulator (Gilson, model 832). The chromatographic separation was performed on a reverse-phase 150 ×2.1 mm (3 μm) C18 Thermo BDS Hypersil column (Keystone Scientific). […] The mobile phase was run at a flow rate of 0.35 ml/min using an HPLC pump (Shimadzu, model LC-10AD vp). Dopamine and DOPAC were electrochemically detected using a potentiostat (Antec Leyden, model Intro) fitted with a glassy carbon electrode set a +500 mV versus Ag/AgCl (Antec, Leyden). Data were analyzed using Chromatography Data System software (Shimadzu, Class-VP, Japan) using an external standard method to quantify concentrations of dopamine and DOPAC. […] Drug effects were expressed as percentages of basal level (mean±SEM) within the same subject. Statistical analysis was performed using Sigmastat for Windows (SPSS Corporation). Drug effects were compared with baseline and vehicle control using a two-way ANOVA for repeated measurements followed by the Newman–Keuls post hoc test. […] For all tests, the level of statistical significance was set at p<0.05.

[4] = system: GluN2B phosphorylated at tyrosine (Y) 1472; assay: GluN2B Y1472 phosphorylation state in nucleus accumbens; type: in vivo; conditions: mice, 1 mg/kg p.o., 120 min after administration
Description: Brains were rapidly removed from the skull. […] Brain tissue was prepared for SDS-PAGE as described above, and protein homogenates (15 μg) were separated on 3-7 % gradient gels, and proteins transferred to nitrocellulose membranes. Portions of each membrane were immunoblotted for GluN2B phosphorylated at […] (rabbit polyclonal) and total GluN2B (mouse monoclonal) (Thermo Fisher Scientific, Rockford, IL).

forelimb catalepsy = assay: Forelimb catalepsy, bar grip test; conditions: mice, 3 mg/kg p.o.; each time point (120-360 min); vs vehicle
Description: Forelimb catalepsy was measured using the bar grip test. Mice were placed in a Lucite mouse cage outfitted with a 3-mm diameter wooden rod suspended 4 cm from the floor of the cage. During testing, the mouse was allowed to grip the bar firmly with hind legs placed firmly on the floor of the cage. The mouse was required to maintain this posture for at least 10 s for a valid test session. Catalepsy was then quantitated by recording the latency (in seconds) to step both front paws down to the floor of the cage up to a maximum time of 120 s. If the mouse stepped off the bar immediately (less than 10 s), another attempt was made up to a maximum of ten attempts. The longest duration of immobility was recorded if none of the ten attempts were beyond 10 s. Catalepsy was measured for each mouse at 2, 3, 4, and 6 h after drug administration. Mean forelimb catalepsy time (in seconds) was calculated across each group and time point. Data were analyzed using ANOVA with Newman–Keuls post hoc test.

[5] = 3 mg/kg p.o. once daily 21 days
[6] = 30 mg/kg p.o. once daily 21 days
[7] = 1 mg/kg p.o. once daily 21 days
[8] = 10 mg/kg p.o. once daily 21 days

Row | SMILES | ID50, inhibition of D-AMPH-induced hyperactivity [1] | Effect on TH phosphorylation at S40 in striatum [2] | DOPAC/DA, chronic (21 day) dosing, mean [3, 5] | HVA/DA, chronic (21 day) dosing, mean [3, 5] | DOPAC/DA, acute (2 h) dosing, mean ([3]; 3 mg/kg p.o. once) | HVA/DA, acute (2 h) dosing, mean ([3]; 3 mg/kg p.o. once) | DOPAC/DA, chronic (21 day) dosing, mean [3, 7] | HVA/DA, chronic (21 day) dosing, mean [3, 7] | DOPAC/DA, acute (2 h) dosing, mean ([3]; 1 mg/kg p.o. once) | HVA/DA, acute (2 h) dosing, mean ([3]; 1 mg/kg p.o. once) | also measured
1 | O=C1CCc2ccc(OCCCCN3CCN(c4cccc(Cl)c4Cl)CC3)cc2N1 [Aripiprazole] | 4.65 mg/kg | did not significantly affect | 8.27 ^*, ^** | 12.14 ^* | 8.57 | 12.63 | – | – | – | – | DOPAC/DA, chronic (21 day) dosing, mean [3, 6]: 7.25 ^*, ^**; HVA/DA, chronic (21 day) dosing, mean [3, 6]: 12.32 ^*; DOPAC/DA, acute (2 h) dosing, mean ([3]; 30 mg/kg p.o. once): 11.89; HVA/DA, acute (2 h) dosing, mean ([3]; 30 mg/kg p.o. once): 11.20; DA or DOPAC efflux in striatum or mPFC (extracellular dopamine; 30 mg/kg p.o.): did not significantly affect
2 | Cc1nc2n(c(=O)c1CCN1CCC(c3noc4cc(F)ccc34)CC1)CCCC2 [Risperidone] | 0.33 mg/kg | significantly increase | – | – | – | – | 16.35 ^*, ^**, ^*** | 29.37 ^*, ^**, ^*** | 14.35 ^*, ^**, ^*** | 30.71 ^*, ^**, ^*** | DOPAC/DA, chronic (21 day) dosing, mean [3, 8]: 25.12 ^*, ^**, ^***; HVA/DA, chronic (21 day) dosing, mean [3, 8]: 36.39 ^*, ^**, ^***; DOPAC/DA, acute (2 h) dosing, mean ([3]; 10 mg/kg p.o. once): 30.98 ^*, ^**, ^***; HVA/DA, acute (2 h) dosing, mean ([3]; 10 mg/kg p.o. once): 23.06 ^*, ^**, ^***
3 | CN1CCN(C2=Nc3cc(Cl)ccc3Nc3ccccc32)CC1 [Clozapine] | – | did not significantly affect | – | – | – | – | – | – | – | – | –
4 | O=C(CCCN1CCC(O)(c2ccc(Cl)cc2)CC1)c1ccc(F)cc1 [Haloperidol] | 0.04 mg/kg | significantly increase | 17.00 ^*, ^**, ^*** | 24.15 ^*, ^**, ^*** | 22.68 ^*, ^**, ^*** | 28.14 ^*, ^**, ^*** | 18.26 ^*, ^**, ^*** | 29.23 ^*, ^**, ^*** | 19.69 ^*, ^**, ^*** | 31.04 ^*, ^**, ^*** | DA and DOPAC efflux in striatum (extracellular dopamine; 0.3 mg/kg s.c., p<0.001 vs vehicle): significant increase; DA and DOPAC levels in mPFC (extracellular dopamine; 0.3 mg/kg s.c., p<0.01 (DA), p<0.001 (DOPAC) vs vehicle): elevated; GluN2B phosphorylation at Y1472 in nucleus accumbens [4]: 177±28 % of control; Forelimb catalepsy, bar grip test (forelimb catalepsy): profound forelimb catalepsy
5 | Cc1cc2c(s1)Nc1ccccc1N=C2N1CCN(C)CC1 [Olanzapine] | – | significantly increase | – | – | – | – | – | – | – | – | –
